Data published in patent publication US20040014676A1, “SRC kinase inhibitors useful for treating osteoporosis” (priority 2001, published 2004).

Molecular target: T1, Src kinase (Homo sapiens, UniProt P12931)
T1 construct: purchased Upstate Bioteolnology (sic; Upstate Biotechnology); later HMR stock 27597-019E1 #14-117
Assay: Phosphorylation assay of Src kinase inhibitors (radiometric, 96 well filter plate)
Format: biochemical
Settings: duplicates, tested in the range of 400-0.098 µM; 10 µM peptide substrate (FIYGAFKKKKNH2), 5 µM unlabeled ATP, room temperature 30 min; read-out: IC50
Experimental: The present invention provides novel compounds of Formulae I through XVIII discussed above. The following compounds which fall within Formulae I through XVIII are characterized by structure, IUPAC name and activity using phosphorylation assay for protein tyrosine Src kinase.
Phosphorylation Assay of Src Kinase Inhibitors
The activity of Src kinase was measured in a 96 well plate phosphorylation assay where the transfer of gamma phosphate from ATP to peptide substrate was measured radiometrically. […] Ki values were determined experimentally for some of the inhibitors. The phosphocellulose filter plates (Millipore catalog #MAPH NOB) were prewet prior to the phosphorylation assay by addition of 100 1 per well of 30 mM MES buffer+0.4 mg/ml BSA. After a 20-minute incubation, the buffer was removed completely via a Millipore vacuum manifold. The phosphorylation assay was then set up in the filter plates in a total volume per well of 60 1. The 60 1 consisted of compound (see concentration ranges above), a 1:100 dilution of Src kinase (originally Upstate Bioteolnology, #14-117; later HMR stock 27597-019E1) or assay buffer alone (for no enzyme control wells), 10 M peptide substrate (FIYGAFKKKKNH2), 5 M unlabeled ATP and a 1:500 dilution of P-ATP (New England Nuclear, catalog #NEG-602H, 2000 Ci/mmol). The reaction was mixed and incubated at room temperature for 30 min. The kinase reactions were stopped by addition of 150 mM H3PO4 and incubated for 10 minutes. The filter plate wells were filtered and washed seven times with 200 1 per well of 150 mM H3PO4. Finally, the filter plate was placed into a Packard plate adapter (Packard catalog #600517B), 35 1 of Microscint-20 (Packard catalog #6013621) was added to each well, the plate was sealed (TopSeal A sealers; Packard catalog #6005185) and counted on a Packard TopCount.

T1 sequence (P12931 whole entry): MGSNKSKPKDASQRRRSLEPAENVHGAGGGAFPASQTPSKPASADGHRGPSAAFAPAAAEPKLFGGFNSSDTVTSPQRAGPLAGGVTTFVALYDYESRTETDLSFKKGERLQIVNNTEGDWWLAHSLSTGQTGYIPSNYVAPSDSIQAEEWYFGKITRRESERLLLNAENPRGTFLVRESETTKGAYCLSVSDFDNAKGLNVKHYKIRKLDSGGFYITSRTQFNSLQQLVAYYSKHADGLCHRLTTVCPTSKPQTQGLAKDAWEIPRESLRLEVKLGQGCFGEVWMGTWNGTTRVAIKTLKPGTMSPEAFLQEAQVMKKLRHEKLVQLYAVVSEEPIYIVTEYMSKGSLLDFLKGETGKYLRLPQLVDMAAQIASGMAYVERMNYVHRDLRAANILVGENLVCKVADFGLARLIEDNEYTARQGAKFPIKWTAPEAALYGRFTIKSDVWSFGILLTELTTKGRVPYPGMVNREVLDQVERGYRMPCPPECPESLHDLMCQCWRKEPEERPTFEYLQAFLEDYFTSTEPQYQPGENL

| SMILES | IC50 |
| --- | --- |
| N=C(N)NCCCC(NC(=O)c1cc2ccccc2cc1OCCCCNC(=O)[C@@H](N)Cc1ccc(O)cc1)C(N)=O (stereo partly drawn) [Example 11, 3-[4-[[2(S)-AMINO-3-(4-HYDROXY- PHENYL)-1-OXOPROPYL]AMINO]- BUTOXY]-NAPHTHALENE-2-[N- [[AMIDO][(3-AMINOIMINOMETHYL)- PROPYLAMINO]METHYL]]- CARBOXAMIDE] | 113 µM |
| NC(=O)CNC(=O)c1cc2ccccc2cc1OCCCCNC(=O)[C@@H](N)C1CCCCC1 [Example 50, 3-[[[4-(2(S)-AMINO-2-CYCLOHEXYL-1- OXO)ETHYL]AMINO]BUTOXY]- NAPHTHALENE-2-(N-ACETAMIDO)- CARBOXAMIDE] | 2 µM |
| NC(=O)c1cc2ccccc2cc1OCCCCNC(=O)[C@@H](N)Cc1ccc(O)cc1 [Example 6, 3-[4-[[2(S)-AMINO-3-(4-HYDROXY- PHENYL)-1-OXOPROPYL]AMINO]- BUTOXY]-NAPHTHALENE-2- CARBOXAMIDE] | 47 µM |
| NC(=O)CNC(=O)c1cc2ccccc2cc1NC(=O)CCCCNC(=O)[C@@H](N)Cc1ccc(O)cc1 [Example 35, 3-[[[[[[2(S)-AMINO-3-(4-HYDROXY- PHENYL)-1-OXO]PROPYL]AMINO]- BUTYL]CARBONYL] AMINO]- NAPHTHALENE-2-(N- ACETAMIDO)CARBOXAMIDE] | 209 µM |
| CCNC(=O)CNC(=O)c1cc2ccccc2cc1OCCCCN(C)C(=O)C(N)Cc1csc2ccccc12 (centres unmarked) [Example 154, 3-[[[4-[3-(BENZOTHIOPHEN-3-YL)-2- AMINO-1-OXO]PROPYL](N-METHYL)- AMINO]BUTOXY]-NAPHTHALENE-2- [(N-(N-ETHYL)ACETAMIDO]- CARBOXAMIDE] | 4 µM |
| NC(=O)CNC(=O)c1cc2ccccc2cc1OCCCCNC(=O)[C@@H](N)Cc1cccc(F)c1 [Example 59, 3-[4-[[[2(S)-AMINO-3-(3-FLUORO- PHENYL)-1-OXO]PROPYL]AMINO]- BUTOXY]-NAPHTHALENE-2-(N- ACETAMIDO)CARBOXAMIDE] | 0.49 µM |
| NC(=O)CC(=O)Nc1cc2ccccc2cc1OCCCCNC(=O)[C@@H](N)Cc1csc2ccccc12 [Compound 152, (2S)-2-amino-3-benzo[b]thiophen-3-yl-N-{4-[3-(2-carbamoylacetylamino)(2-naphthyloxy)]butyl}propanamide] | 1 µM |
| NC(=O)CNC(=O)c1cc2ccccc2cc1OCCCCNC(=O)C(=C/c1ccc(O)cc1)/C(N)=N/O [Example 150, 3-[[4-[N-[1-OXO-2-[(HYDROXYIMINO)- (AMINO)METHYL]-3-(4-HYDROXY- PHENYL)]]PROP-2-ENYL]AMINO]- BUTOXY]-NAPHTHALENE-2-(N- ACETAMIDO)CARBOXAMIDE] | 16 µM |
| CNC(=O)C(Cc1ccc(-c2noc(C)n2)cc1)C(=O)NCCCCOc1cc2ccccc2cc1C(=O)NCC(N)=O (centres unmarked) [Compound 134, N-(4-{3-[N-(carbamoylmethyl)carbamoyl](2-naphthyloxy)}butyl)-N′-methyl-2-{[4-(5-methyl(1,2,4-oxadiazol-3-yl))phenyl]methyl}propane-1,3-diamide] | 76 µM |
| NC(=O)CNC(=O)c1cc2ccccc2cc1OCCCCN1CCNC(Cc2ccccc2)C1=O (stereo in doubt) [Example 30, 3-[4-[(2-OXO-3-(R)-BENZYL)- PIPERAZIN-1-YL]BUTOXY]- NAPHTHALENE-2-(N- ACETAMIDO)CARBOXAMIDE] | 8.8 µM |
| NC(=O)CNC(=O)c1cc2ccccc2cc1OCCCCNC(=O)[C@@H](N)Cc1ccc([N+](=O)[O-])cc1 [Example 45, 3-[[4-[[2(S)-AMINO-3(4-NITROPHENYL)- 1-OXO]PROPYL]AMINO]BUTOXY]- NAPHTHALENE-2-(N-ACETAMIDO)- CARBOXAMIDE] | 1.47 µM |
| NC(=O)CNC(=O)c1cc2ccccc2cc1OCCCCNC(=O)C1NCCC1c1ccc(O)cc1 [Example 22, 3-[N-[[[(3-(S)4-HYDROXYPHENYL)- TETRAHYDROPYRROL-2-YL]- CARBONYL]AMINO]BUTOXY]- NAPHTHALENE-2-[N-(2- AMIDOMETHYL)]CARBOXAMIDE] | 11 µM |
| CN(C)[C@@H](Cc1ccccc1)C(=O)NCCCCOc1cc2ccccc2cc1C(=O)NCC(N)=O [Example 68] | 50 µM |
| NC(=O)CC[C@H](N)C(=O)NCCCCOc1cc2ccccc2cc1C(=O)NCC(N)=O [Example 70, 3-[4-[[(1-OXO-2(S)-AMINO-4-AMINO- CARBONYL)BUTYL]AMINO]BUTOXY]- NAPHTHALENE-2-(N-ACETAMIDO)- CARBOXAMIDE] | 370 µM |
| CCC(C)[C@H](N)C(=O)NC(Cc1ccc(O)cc1)C(=O)NCCCCOc1cc2ccccc2cc1C(=O)NCC(N)=O (some centres unmarked) [Example 19] | 12 µM |
| NC(=O)CNC(=O)c1cc2ccccc2cc1OCCCCCCNC(=O)[C@@H](N)Cc1ccc(O)cc1 [Example 95, 3-[6-[[[1-OXO-2(S)-AMINO-3-(4- HYDROXYPHENYL)]PROPYL]AMINO]- HEXOXY]NAPHTHALENE-2-(N- ACETAMIDO)CARBOXAMIDE] | 7.1 µM |
| CC(c1ccc(Cl)c(Cl)c1)[C@H](N)C(=O)NCCCCOc1cc2ccccc2cc1C(=O)NCC(N)=O (stereo partly drawn) [Example 60, 3-[4-[[[2(S)-AMINO-3(3,4-DICHLORO- PHENYL)-1-OXO]BUTYL]AMINO]- BUTOXY]-NAPHTHALENE-2-(N- ACETAMIDO)CARBOXAMIDE] | 1.56 µM |
| NC(=O)CNC(=O)c1cc2ccccc2cc1C(=O)NCCCNC(=O)[C@@H](N)Cc1ccc(O)cc1 [Example 89, 3-[[[3-[[[1-OXO-2(S)-AMINO-3- HYDROXYPHENYL)]PROPYL]AMINO]- PROPYL]AMINO]CARBONYL]- NAPHTHALENE-2-ACETAMIDO)- CARBOXAMID] | 252 µM |
| NC(=O)CNC(=O)c1cc2ccccc2cc1OCCCCN1CCC[C@H](c2ccccc2)[C@H](N)C1=O [Example 77, 3-[4-[(2-OXO-3(R)-AMINO-4(R)- PHENYL)HEXAMETHYLENEIMIN-1- YL]BUTOXY]-NAPHTHALENE-2-(N- ACETAMIDO)CARBOXAMIDE] | 6 µM |
| CNC(=O)[C@@H](Cc1cccc(C(=O)OC)c1)C(=O)NCCCCOc1cc2ccccc2cc1C(=O)NCC(N)=O [Example 148, 3-[[4-[N-[1-OXO-2-(N-METHYLAMINO- CARBONYL)-3-[(3-(METHOXY- CARBONYL)PHENYL]]PROPYL]- AMINO]BUTOXY]-NAPHTHALENE-2- (N-ACETAMIDO)CARBOXAMIDE] | 203 µM |
| NC(=O)CNC(=O)c1cc2ccccc2cc1OCCCCNC(=O)[C@@H](N)Cc1ccc(I)cc1 [Example 62, 3-[4-[[[1-OXO-2(S)-AMINO-3(4- IODOPHENYL)]PROPYL]AMINO]- BUTOXY]-NAPHTHALENE-2-(N- ACETAMIDO)CARBOXAMIDE] | 6.25 µM |
| NC(=O)C(CCC(=O)O)NC(=O)c1cc2ccccc2cc1OCCCCNC(=O)[C@@H](N)Cc1ccc(O)cc1 (stereo partly drawn) [Example 12, 3-[4-[[2(S)-AMINO-3-(4-HYDROXY- PHENYL)-1-OXOPROPYL]AMINO]- BUTOXY]-NAPHTHALENE-2-[N- [(AMIDO)(2-CARBOXYEHTYL)- METHYL]]CARBOXAMIDE] | 308 µM |
| NC(=O)CNC(=O)c1cc2ccccc2cc1OCCCCNC(=O)C1(N)Cc2ccccc2C1 [Example 40, 3-[4-[n-[1-OXO-2-(2-AMINOINDAN-2- YL)]ETHYL]-AMINOBUTOXY]- NAPHTHALENE-2-(N- ACETAMIDO)CARBOXAMIDE] | 12 µM |
| NC(=O)CNC(=O)c1cc2ccccc2cc1OCCCCNC(=O)[C@@H](N)CCc1ccccc1 [Example 36, 3-[[4-[(2(S)-AMINO-3-(BENZYL-1- OXO)PROPYL]AMINO]BUTOXY]- NAPHTHALENE-2-(N- ACETAMIDO)CARBOXAMIDE] | 7.9 µM |
| NC(=O)CNC(=O)c1cc2ccccc2cc1OCCCCNC(=O)[C@@H](N)Cc1ccc(F)cc1 [Example 41, 3-[[4-[[2(S)-AMINO-3-(4-FLUORO- PHENYL)-1-OXO]PROPYL]AMINO]- BUTOXY]-NAPHTHALENE-2- (N-ACETAMIDO)CARBOXAMIDE] | 0.31 µM |
| N[C@@H](Cc1ccc(O)cc1)C(=O)NCCCCOc1ccc2ccccc2c1C(=O)NCC(=O)NCCCO [Example 117, 2-[[4-[[1-OXO-2(S)-AMINO-3-(4- HYDROXYPHENYL)]PROPYL]AMINO]BUTOXY]NAPHTHALENE-1-[N-[[(3- HYDROXYPROPYLAMINO)- CARBONYL]METHYL]]CARBOXAMIDE] | 47 µM |
| NC(=O)CNC(=O)c1cc2ccccc2cc1OCCCCNC(=O)C1Cc2ccc(O)cc2CN1 (centres unmarked) [Example 20, 3-[N-[[(7-HYDROXY)-1,2,3,4-TETRA- HYDROISOQUINOLIN-3-YL]- CARBONYL]AMINO]BUTOXY]- NAPHTHALENE-2-[N-(2- AMIDOMETHYL)]CARBOXAMIDE] | 3.8 µM |
| NC(=O)CNC(=O)[C@@H](Cc1ccccc1)NCCCCCNC(=O)[C@H](N)Cc1csc2ccccc12 [Example 80, N-[((R)BENZYL)[(AMINO)(CARBONYL) (METHYL)(AMINO)(CARBONYL)]- METHYL]-5-[[N-[1-OXO-2- AMINO-3-(R)(BENZOTHIOPHEN-3-YL)]PROPYL]AMINO]PENTYLAMINE] | 6 µM |
| NC(=O)CNC(=O)c1cc2ccccc2cc1OCCCCNC(=O)[C@@H](N)Cc1ccc(O)cc1 [Example 5, 3-[4-[[2(S)-AMINO-3-(4-HYDROXY- PHENYL)-1-OXOPROPYL]AMINO]- BUTOXY]-2-[N-ACETAMIDO]- NAPHTHALENECARBOXAMIDE] | 0.47 µM |
